In patent US20260256741A1, “ANTICANCER MALEIMIDE DERIVATIVES FOR USE WITH IMMUNE CHECKPOINT BLOCKADE” (BROWN UNIVERSITY, priority 2022, published 2026):

Key:
[1] = test system: CT-26 MSS colon carcinoma; assay: Syngeneic murine colon carcinoma BALB/c model using MSS cell line CT-26, survival; format: in vivo, BALB/c mice; conditions: IP twice a week: elraglusib 70 mg/kg, anti-PD-1 10 mg/kg, anti-PD-L1 10 mg/kg
Protocol: The experimental in vivo protocol (Protocol #19-01-003) was approved by the Institutional Animal Care and Use Committee of Brown University (Providence, RI, USA). Six to 7 weeks-old female BALB/c mice (RRID: IMSR_JAX:000651) were purchased from Taconic. 50,000 cells were suspended in 50 μL ice-cold PBS and 50 μL Matrigel (Catalog # 354234, Corning, New York, USA), and 100 uL was injected subcutaneously into the rear flanks. Once tumor volume reached at least 100 mm^3, mice were randomly assigned to one of seven groups (3 mice/group): Control (isotype), elraglusib, elraglusib+Isotype, anti-PD-1, anti-PD-L1, elraglusib+anti-PD-1, and elraglusib+anti-PD-L1. All treatments were delivered by IP injection on the following dosing schedule: Isotype (70 mg/kg, twice a week), elraglusib (70 mg/kg, twice a week), anti-PD-1 (10 mg/kg, twice a week), anti-PD-L1 (10 mg/kg, twice a week). The treatment continued until mice developed signs of discomfort from excessive tumor growth. Mice were weighed once a week to monitor signs of drug toxicity. The length (L) and width (W) of the masses were measured three times per week with a digital caliper, and the tumor volume was calculated by applying the formula: 0.5LW2. Collection of whole blood and serum was performed by cardiac puncture and sent to Antech GLP for blood cell count and chemistry tests, or in-house cytokine profiling. […]

[2] = test system: CD45+ immune cell segments of tumor biopsies; assay: GeoMx Digital Spatial Profiling of patient tumor biopsies; format: in vivo, human; conditions: post- vs pre-treatment
Description: An Agilent technologies hybridization oven was used for baking tissue onto slides (Agilent, Santa Clara, CA, USA). A NanoString GeoMx® Digital Spatial Profiler (DSP) instrument (NanoString, Seattle, WA, USA) was used to scan slides, identify regions of interest (ROIs), and collect photocleavable barcodes according to manufacturer instructions. A custom panel was designed to include the following proteins: Ms IgG1, Ms IgG2a, Rb IgG, GAPDH, Histone H3, S6, Beta-2-microglobulin, CD31, CD45, Ki-67, ARG1, CD11b, CD11c, CD14, CD163, CD39, CD40, CD68, HLA-DR, GZMB, CD20, CD3, CD34, CD4, CD56, CD66b, CD8, Foxp3, Fibronectin, 4-1BB, B7-H3, CTLA4, GITR, IDO1, LAG3, OX40L, STING, Tim-3, VISTA, Bcl-2, ER-α, EpCAM, Her2, MART1, NY-ESO-1, PR, PTEN, PanCk, SMA, CD127, CD25, CD27, CD44, CD45RO, CD80, ICOS, PD-1, PD-L1, and PD-L2. An Eppendorf MasterCycler Gradient Thermal Cycler was used to generate the Illumina sequencing libraries from the photocleaved tags. (Eppendorf, Hamburg, Germany). An Agilent Fragment Analyzer (RRID: SCR_019417) was used for library size distribution analysis with a high-sensitivity NGS Fragment Kit (Cat #DNF-474-0500, Agilent, Santa Clara, CA, USA). qPCR for quantification was run using an Illumina-compatible KAPA Library Quantification Kits (ROX Low) (cat #KK4873) on an Applied Biosystems ViiA 7 Real-Time qPCR/PCR Thermal Cycler System (Applied Biosystems, San Francisco, CA, USA) and was analyzed using QuantStudio software (RRID: SCR_018712). Sequencing was performed using a NextSeq 500/550 High Output Kit v2.5 (75 Cycles) kit (cat #20024906) on an Illumina Sequencing NextSeq 550 System ([RRID: SCR_016381], Illumina, San Diego, CA, USA). The initial annotated dataset went through quality control (QC) to check if housekeeper genes and background (isotype) control molecules were themselves correlated with the predictors of interest. Every ROT was tested for raw sequencing reads (segments with <1000 raw reads were removed), % sequencing saturation (defined as [1-deduplicated reads/aligned reads]%, segments below ~50% were not analyzed), and nuclei count per segment (>100 nuclei per segment is generally recommended). Both immunoglobulins (IgGs) and housekeeper genes were highly correlated with one another. Signal to noise (SNR) ratio was calculated using background probes and all probes were detected above the background in at least one ROI. Finally, data were normalized based on background IgG expression and all normalization factors were well distributed. Data analysis and visualization were generated using R ([RRID: SCR_001905], R Development Core Team, 2020). Archival tumor specimens and peripheral blood samples were collected from patients enrolled in the Phase I study of Elraglusib (9-ING-41), a small molecule selective glycogen synthase kinase-3 beta (GSK-3b) inhibitor, as monotherapy or combined with cytotoxic regimens in patients with relapsed or refractory hematologic malignancies or solid tumors (Clinicaltrials.gov NCT03678883) who received treatment at the Lifespan Cancer Institute (Providence, RI, USA). The study was conducted in accordance with the Declaration of Helsinki and the International Conference on Harmonization Good Clinical Practice guidelines. The study protocol was approved by the Institutional Review Board (IRB) of Rhode Island Hospital under protocol number 1324888-120. The patients also participated in a Lifespan Cancer Institute research protocol designed to investigate molecular and genetic features of tumors and mechanisms of resistance (Rhode Island Hospital IRB protocol number 449060-38). All patients provided written informed consent.

[3] = tumor-infiltrating CD45+ segments, p=0.012
[4] = tumor-infiltrating CD45+ segments, p=1.6E-3
[5] = tumor-infiltrating CD45+ segments, p=3.1E-5

Cn1cc(C2=C(c3coc4ccc(F)cc34)C(=O)NC2=O)c2cc3c(cc21)OCO3 [elraglusib, 3-(5-fluorobenzofuran-3-yl)-4-(5-methyl-5H-[1,3]dioxolo[4,5-f]indol-7-yl)-1H-pyrrole-2,5-dione]
survival (Kaplan-Meier) as compared to the control [1]: statistically significant improved survival | CD40 protein expression ([2]; CD45+ regions, all samples, p=0.020): decreased protein expression | CD11c protein expression ([2]; CD45+ regions, all samples, p=0.022): decreased protein expression | PD-L2 protein expression ([2]; CD45+ regions, all samples, p=2.0E-9): decreased protein expression | VISTA protein expression ([2]; CD45+ regions, all samples, p=2.0E-24): decreased protein expression | PD-L1 protein expression ([2]; CD45+ regions, all samples, p=3.2E-13): decreased protein expression | CD68 protein expression ([2]; CD45+ regions, all samples, p=3.8E-4): decreased protein expression | IDO1 protein expression ([2]; CD45+ regions, all samples, p=4.8E-6): decreased protein expression | LAG3 protein expression ([2]; CD45+ regions, all samples, p=5.1E-4): decreased protein expression | CD80 protein expression ([2]; CD45+ regions, all samples, p=5.4E-6): decreased protein expression | PD-1 protein expression ([2]; CD45+ regions, all samples, p=5.6E-9): decreased protein expression | CD11b protein expression ([2]; CD45+ regions, all samples, p=6.7E-3): decreased protein expression | CD66b protein expression ([2]; CD45+ regions, all samples, p=7.5E-15): decreased protein expression | B7-H3 protein expression [2, 3]: higher protein expression | CD127 protein expression [2, 3]: higher protein expression | GITR protein expression ([2]; tumor-infiltrating CD45+ segments, p=0.021): lower protein expression | CD45RO protein expression ([2]; tumor-infiltrating CD45+ segments, p=1.1E-4): lower protein expression | PD-L1 protein expression ([2]; tumor-infiltrating CD45+ segments, p=1.1E-6): lower protein expression | CD66b protein expression ([2]; tumor-infiltrating CD45+ segments, p=1.4E-13): lower protein expression | PTEN protein expression ([2]; tumor-infiltrating CD45+ segments, p=1.5E-11): lower protein expression | OX40L protein expression [2, 4]: higher protein expression | PD-1 protein expression [2, 4]: lower protein expression | VISTA protein expression ([2]; tumor-infiltrating CD45+ segments, p=1.6E-14): lower protein expression | CD80 protein expression ([2]; tumor-infiltrating CD45+ segments, p=2.4E-3): lower protein expression | B2M protein expression ([2]; tumor-infiltrating CD45+ segments, p=2.5E-6): lower protein expression | Ki-67 protein expression ([2]; tumor-infiltrating CD45+ segments, p=2.7E-4): lower protein expression | CTLA4 protein expression [2, 5]: higher protein expression | HLA-DR protein expression [2, 5]: lower protein expression | CD44 protein expression ([2]; tumor-infiltrating CD45+ segments, p=3.1E-7): lower protein expression | CD34 protein expression ([2]; tumor-infiltrating CD45+ segments, p=3.3E-9): lower protein expression | CD68 protein expression ([2]; tumor-infiltrating CD45+ segments, p=5.8E-4): lower protein expression | IDO1 protein expression ([2]; tumor-infiltrating CD45+ segments, p=6.6E-4): lower protein expression | CD56 protein expression ([2]; tumor-infiltrating CD45+ segments, p=6.9E-3): lower protein expression | PD-L2 protein expression ([2]; tumor-infiltrating CD45+ segments, p=7.6E-4): lower protein expression | ARG1 protein expression ([2]; tumor-infiltrating CD45+ segments, p=7.6E-5): lower protein expression | CD11c protein expression ([2]; tumor-infiltrating CD45+ segments, p=9.5E-3): lower protein expression
